Key:
[1] = tested on: Puccinia recondita f. Sp. Tritici; experiment: Fungicidal activity, wheat leaf disc preventative (brown rust); type: in vivo; details: foliar, 200 ppm in the applied formulation, wheat leaf segments cv. Kanzler, compared to untreated control, 7 to 9 days after application, read-out: disease control
Summary of the method: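 Wheat cv. Kanzler leaf segments on agar were sprayed with formulated compound in water, then inoculated with spores 1 day later. Incubated at 19° C, 75% rh, 12 h light/12 h dark; percent disease control versus untreated scored 7 to 9 days after application.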

[2] = tested on: Puccinia recondita f. Sp. Tritici; experiment: Fungicidal activity, wheat leaf disc curative (brown rust); type: in vivo; details: foliar, 200 ppm in the applied formulation, wheat leaf segments cv. Kanzler, curative (applied 1 day after inoculation), compared to untreated control, 6 to 8 days after application, read-out: disease control
Method: Leaf disks or leaf segments of various plant species are cut from plants grown in a greenhouse. The cut leaf disks or segments are placed in multiwell plates (24-well format) onto water agar. The leaf disks are sprayed with a test solution before (preventative) or after (curative) inoculation. Compounds to be tested are prepared as DMSO solutions (max. 10 mg/ml) which are diluted to the appropriate concentration with 0.025% Tween20 just before spraying. The inoculated leaf disks or segments are incubated under defined conditions (temperature, relative humidity, light, etc.) according to the respective test system. A single evaluation of disease level is carried out 3 to 14 days after inoculation, depending on the pathosystem. Percent disease control relative to the untreated check leaf disks or segments is then calculated.
Wheat leaf segments cv. Kanzler are placed on agar in multiwell plates (24-well format). The leaf segments are then inoculated with a spore suspension of the fungus. Plates were stored in darkness at 19° C. and 75% relative humidity. The formulated test compound diluted in water was applied 1 day after inoculation. The leaf segments were incubated at 19° C. and 75% relative humidity under a light regime of 12 hours light/12 hours darkness in a climate cabinet and the activity of a compound was assessed as percent disease control compared to untreated when an appropriate level of disease damage appears in untreated check leaf segments (6 to 8 days after application).
The following compounds at 200 ppm in the applied formulation give at least 80% disease control in this test when compared to untreated control leaf disks under the same conditions, which show extensive disease development.

[3] = tested on: Glomerella lacenarium (Colletotrichum lacenarium); experiment: Fungicidal activity, liquid culture, cucumber preventative (anthracnose); type: cell-based; details: 20 ppm in the applied formulation, liquid culture in PDB, inhibition of growth measured photometrically 3 to 4 days after application, compared to untreated control, read-out: disease control
Summary of the method: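 Conidia from cryogenic storage were mixed into potato dextrose broth and added to DMSO solutions of test compound in microtiter plates. Plates were incubated at 24° C. and growth inhibition read photometrically 3 to 4 days after application, as percent antifungal activity versus untreated check.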

CCN(Cc1ccc(-c2noc(C(F)(F)F)n2)s1)C(=O)C1CCOC1 (stereo not drawn) [Compound 5.10, N-ethyl-N-[[5-[5-(trifluoromethyl)-1,2,4-oxadiazol-3-yl]-2-thienyl]methyl]tetrahydrofuran-3-carboxamide]
≥ 80%: pest or weed control at 200 ppm [1] | pest or weed control at 200 ppm [2] | inhibition of growth at 20 ppm [3]

CN(Cc1ccc(-c2noc(C(F)(F)F)n2)s1)C(=O)C(=O)c1cccs1 [Compound 6.52, N-methyl-2-oxo-2-(2-thienyl)-N-[[5-[5-(trifluoromethyl)-1,2,4-oxadiazol-3-yl]-2-thienyl]methyl]acetamide]
≥ 80%: pest or weed control at 200 ppm [1] | pest or weed control at 200 ppm [2] | inhibition of growth at 20 ppm [3]

CCN(Cc1ccc(-c2noc(C(F)(F)F)n2)s1)C(=O)CNC(C)=O [Compound 4.23, 2-acetamido-N-ethyl-N-[[5-[5-(trifluoromethyl)-1,2,4-oxadiazol-3-yl]-2-thienyl]methyl]acetamide]
≥ 80%: pest or weed control at 200 ppm [1] | pest or weed control at 200 ppm [2] | inhibition of growth at 20 ppm [3]

CC(C)N(Cc1ccc(-c2noc(C(F)(F)F)n2)s1)C(=O)CC(F)(F)F [Compound 4.50, 3,3,3-trifluoro-N-isopropyl-N-[[5-[5-(trifluoromethyl)-1,2,4-oxadiazol-3-yl]-2-thienyl]methyl]propanamide]
≥ 80%: pest or weed control at 200 ppm [1] | pest or weed control at 200 ppm [2] | inhibition of growth at 20 ppm [3]

CCN(Cc1ccc(-c2noc(C(F)(F)F)n2)s1)C(=O)CC1CC1 [Compound 5.9, 2-cyclopropyl-N-ethyl-N-[[5-[5-(trifluoromethyl)-1,2,4-oxadiazol-3-yl]-2-thienyl]methyl]acetamide]
≥ 80%: pest or weed control at 200 ppm [1] | pest or weed control at 200 ppm [2] | inhibition of growth at 20 ppm [3]

CN(Cc1ccc(-c2noc(C(F)(F)F)n2)s1)C(=O)C1(C)COC1 [Compound 5.23, N,3-dimethyl-N-[[5-[5-(trifluoromethyl)-1,2,4-oxadiazol-3-yl]-2-thienyl]methyl]oxetane-3-carboxamide]
≥ 80%: pest or weed control at 200 ppm [1] | pest or weed control at 200 ppm [2] | inhibition of growth at 20 ppm [3]

N#CCC(=O)N(Cc1ccc(-c2noc(C(F)(F)F)n2)s1)C1CC1 [Compound 4.59, 2-cyano-N-cyclopropyl-N-[[5-[5-(trifluoromethyl)-1,2,4-oxadiazol-3-yl]-2-thienyl]methyl]acetamide]
≥ 80%: pest or weed control at 200 ppm [1] | pest or weed control at 200 ppm [2] | inhibition of growth at 20 ppm [3]

CCCN(CC1CC1)C(=O)N(Cc1ccc(-c2noc(C(F)(F)F)n2)s1)OC [Compound 1.60, 1-(cyclopropylmethyl)-3-methoxy-1-propyl-3-[[5-[5-(trifluoromethyl)-1,2,4-oxadiazol-3-yl]-2-thienyl]methyl]urea]
≥ 80%: pest or weed control at 200 ppm [1] | pest or weed control at 200 ppm [2] | inhibition of growth at 20 ppm [3]

CN(Cc1ccc(-c2noc(C(F)(F)F)n2)s1)C(=O)C(=O)c1ccccc1 [Compound 6.47, N-methyl-2-oxo-2-phenyl-N-[[5-[5-(trifluoromethyl)-1,2,4-oxadiazol-3-yl]-2-thienyl]methyl]acetamide]
≥ 80%: pest or weed control at 200 ppm [1] | pest or weed control at 200 ppm [2] | inhibition of growth at 20 ppm [3]

CON(C)C(=O)N(Cc1ccc(-c2noc(C(F)(F)F)n2)s1)OC [Compound 1.6, 1,3-dimethoxy-1-methyl-3-[[5-[5-(trifluoromethyl)-1,2,4-oxadiazol-3-yl]-2-thienyl]methyl]urea]
≥ 80%: pest or weed control at 200 ppm [1] | pest or weed control at 200 ppm [2] | inhibition of growth at 20 ppm [3]

CC(C)N(Cc1ccc(-c2noc(C(F)(F)F)n2)s1)C(=O)N(C)CC#N [Compound 4.82, 1-(cyanomethyl)-3-isopropyl-1-methyl-3-[[5-[5-(trifluoromethyl)-1,2,4-oxadiazol-3-yl]-2-thienyl]methyl]urea]
≥ 80%: pest or weed control at 200 ppm [1] | pest or weed control at 200 ppm [2] | inhibition of growth at 20 ppm [3]

CC(C)C(=O)N(Cc1ccc(-c2noc(C(F)(F)F)n2)s1)C(C)C [Compound 4.11, N-isopropyl-2-methyl-N-[[5-[5-(trifluoromethyl)-1,2,4-oxadiazol-3-yl]-2-thienyl]methyl]propanamide]
≥ 80%: pest or weed control at 200 ppm [1] | pest or weed control at 200 ppm [2] | inhibition of growth at 20 ppm [3]

CCN(Cc1ccc(-c2noc(C(F)(F)F)n2)s1)C(=O)C(C)OC (stereo not drawn) [Compound 4.6, N-ethyl-2-methoxy-N-[[5-[5-(trifluoromethyl)-1,2,4-oxadiazol-3-yl]-2-thienyl]methyl]propanamide]
≥ 80%: pest or weed control at 200 ppm [1] | pest or weed control at 200 ppm [2] | inhibition of growth at 20 ppm [3]

COCC(=O)N(Cc1ccc(-c2noc(C(F)(F)F)n2)s1)OCC(F)F [Compound 4.62, N-(2,2-difluoroethoxy)-2-methoxy-N-[[5-[5-(trifluoromethyl)-1,2,4-oxadiazol-3-yl]-2-thienyl]methyl]acetamide]
≥ 80%: pest or weed control at 200 ppm [1] | pest or weed control at 200 ppm [2] | inhibition of growth at 20 ppm [3]

CCN(Cc1ccc(-c2noc(C(F)(F)F)n2)s1)C(=O)C(C)=O [Compound 6.6, N-ethyl-2-oxo-N-[[5-[5-(trifluoromethyl)-1,2,4-oxadiazol-3-yl]-2-thienyl]methyl]propanamide]
≥ 80%: pest or weed control at 200 ppm [1] | pest or weed control at 200 ppm [2] | inhibition of growth at 20 ppm [3]

CCOC(=O)N(Cc1ccc(-c2noc(C(F)(F)F)n2)s1)OC [Compound 1.28, ethyl N-methoxy-N-[[5-[5-(trifluoromethyl)-1,2,4-oxadiazol-3-yl]-2-thienyl]methyl]carbamate]
≥ 80%: pest or weed control at 200 ppm [1] | pest or weed control at 200 ppm [2] | inhibition of growth at 20 ppm [3]

COCCNC(=O)N(Cc1ccc(-c2noc(C(F)(F)F)n2)s1)C(C)C [Compound 4.84, 1-isopropyl-3-(2-methoxyethyl)-1-[[5-[5-(trifluoromethyl)-1,2,4-oxadiazol-3-yl]-2-thienyl]methyl]urea]
≥ 80%: pest or weed control at 200 ppm [1] | pest or weed control at 200 ppm [2] | inhibition of growth at 20 ppm [3]

CC1CC1C(=O)N(Cc1ccc(-c2noc(C(F)(F)F)n2)s1)OCC(F)F (stereo not drawn) [Compound 5.50, N-(2,2-difluoroethoxy)-2-methyl-N-[[5-[5-(trifluoromethyl)-1,2,4-oxadiazol-3-yl]-2-thienyl]methyl]cyclopropanecarboxamide]
≥ 80%: pest or weed control at 200 ppm [1] | pest or weed control at 200 ppm [2] | inhibition of growth at 20 ppm [3]

CC1CC1C(=O)N(Cc1ccc(-c2noc(C(F)(F)F)n2)s1)C1CC1 (stereo not drawn) [Compound 5.43, N-cyclopropyl-2-methyl-N-[[5-[5-(trifluoromethyl)-1,2,4-oxadiazol-3-yl]-2-thienyl]methyl]cyclopropanecarboxamide]
≥ 80%: pest or weed control at 200 ppm [1] | pest or weed control at 200 ppm [2] | inhibition of growth at 20 ppm [3]

CC(=O)C(=O)N(C)Cc1ccc(-c2noc(C(F)(F)F)n2)s1 [Compound 6.8, N-methyl-2-oxo-N-[[5-[5-(trifluoromethyl)-1,2,4-oxadiazol-3-yl]-2-thienyl]methyl]propanamide]
≥ 80%: pest or weed control at 200 ppm [1] | pest or weed control at 200 ppm [2] | inhibition of growth at 20 ppm [3]

CC(C)N(Cc1ccc(-c2noc(C(F)(F)F)n2)s1)C(=O)C1(C)COC1 [Compound 5.32, N-isopropyl-3-methyl-N-[[5-[5-(trifluoromethyl)-1,2,4-oxadiazol-3-yl]-2-thienyl]methyl]oxetane-3-carboxamide]
≥ 80%: pest or weed control at 200 ppm [1] | pest or weed control at 200 ppm [2] | inhibition of growth at 20 ppm [3]

CN(Cc1ccc(-c2noc(C(F)(F)F)n2)s1)C(=O)C1CCCO1 (stereo not drawn) [Compound 5.22, N-methyl-N-[[5-[5-(trifluoromethyl)-1,2,4-oxadiazol-3-yl]-2-thienyl]methyl]tetrahydrofuran-2-carboxamide]
≥ 80%: pest or weed control at 200 ppm [1] | pest or weed control at 200 ppm [2] | inhibition of growth at 20 ppm [3]

CN(Cc1ccc(-c2noc(C(F)(F)F)n2)s1)C(=O)N(CC(F)F)C1CC1 [Compound 5.54, 1-cyclopropyl-1-(2,2-difluoroethyl)-3-methyl-3-[[5-[5-(trifluoromethyl)-1,2,4-oxadiazol-3-yl]-2-thienyl]methyl]urea]
≥ 80%: pest or weed control at 200 ppm [1] | pest or weed control at 200 ppm [2] | inhibition of growth at 20 ppm [3]

CCN(Cc1ccc(-c2noc(C(F)(F)F)n2)s1)C(=O)N(CCOC)CCOC [Compound 4.74, 1-ethyl-3,3-bis(2-methoxyethyl)-1-[[5-[5-(trifluoromethyl)-1,2,4-oxadiazol-3-yl]-2-thienyl]methyl]urea]
≥ 80%: pest or weed control at 200 ppm [1] | pest or weed control at 200 ppm [2] | inhibition of growth at 20 ppm [3]

From patent US20200187502A1, “MICROBIOCIDAL OXADIAZOLE DERIVATIVES” (SYNGENTA PARTICIPATIONS AG, priority 2017, published 2020)
